We go through twelve molecules from ChEMBL document CHEMBL1201862, “PubChem BioAssay data set” (2004).

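Cultured in 96-well plates, cells were exposed to test compound for 48 hours across five concentrations. GI50 = concentration required for 50% inhibition of growth.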 Calls of active or inactive are those of the source. Cut-off read from the data, not from the text of the source: active = GI50 up to about 1.1 µM and inactive = higher.

What all share (experiment): DTP human tumour cell line panel, 48 h
In assay [1] the test system is HT-29.
Assay [2] has as its system UACC-62.
Assay [3] concerns SF-539.
For assay [4], the system named is UO-31.
For assay [5], the system named is A498.
Assay [6] deals with OVCAR-3.
Assay [7] has as its system SN12C.
Assay [8] deals with NCI-H460.
For assay [9], the system named is COLO 205.
Assay [10] has as its system EKVX.
The subject of assay [11] is OVCAR-8.
Assay [12] deals with HOP-62.
Assay [13] has as its system SNB-75.
For assay [14], the system named is K562.
The test system of assay [15] is MOLT-4.
Assay [16] deals with HL-60.
Assay [17] relates to SF-295.
Assay [18] has as its system RPMI-8226.
In assay [19] the test system is RXF 393.
For assay [20], the system named is HOP-92.

On to `Cc1cc(Oc2cnc(=O)[nH]c2)cs1`, for which the GI50 in [1], in assay [2], in [3], in assay [4], in assay [5] and in [6] was > 100 µM (inactive) each time. For the same molecule, the GI50 in assay [7], in [8], in assay [9], in assay [10], in [11] and in assay [12] was > 100 µM (inactive) throughout. Besides, the GI50 in assay [13], in [14], in [15], in assay [16], in [17] and in assay [18] was > 100 µM (inactive) throughout.
For `Cc1ccc(S(=O)(=O)N2CCN(C=S)CC2)cc1`, the GI50 in assay [1], in assay [2], in assay [3], in [4], in assay [5] and in assay [19] was > 100 µM (inactive) each time. Moreover, the GI50 in assay [6], in assay [7], in assay [8], in assay [9], in [10] and in [11] was > 100 µM (inactive) each time. Further, the GI50 in assay [12], in assay [13], in assay [14], in assay [15] and in assay [16] was > 100 µM (inactive) throughout.
Turning to `O=C(Nc1sccc1S(=O)(=O)c1ccccc1)c1cccnc1`, the GI50 (usually the concentration that inhibits growth by half) in assay [1] is 5.68 µM (inactive); in [2], 14 µM (inactive); in assay [3], 5.94 µM (inactive); in assay [4], > 58.1 µM (inactive); in assay [20] it was > 42.4 µM (inactive); in assay [19], 14.9 µM (inactive). The GI50 in [6] is 11.6 µM (inactive); in assay [7], 9.86 µM (inactive); in assay [8] it was 8.34 µM (inactive); in assay [9], 3.88 µM (inactive); in assay [10], 48.9 µM (inactive); in assay [11], 22.7 µM (inactive). Further, the GI50 is 21.9 µM (inactive) in assay [12]; 19.1 µM (inactive) in [13]; 4.39 µM (inactive) in assay [14]; 5.35 µM (inactive) in assay [15]; 0.614 µM (active) in [16]; 8.63 µM (inactive) in [17]. Besides, the GI50 in assay [18] was 7.52 µM (inactive).
As to `CCOC(=O)c1c(CN2CCOCC2)n(Cc2ccccc2)c2c1cc(O)c1nc(C)c(C)nc12`, the GI50 was > 100 µM (inactive) in [1]; 38.7 µM (inactive) in assay [2]; 30.8 µM (inactive) in assay [3]; 36.1 µM (inactive) in [4]; 22 µM (inactive) in [5]; 52.7 µM (inactive) in assay [6]. The GI50 in assay [7] is > 100 µM (inactive); in assay [8], 42 µM (inactive); in assay [9], 40 µM (inactive); in [10] it was > 100 µM (inactive); in assay [11], 15.5 µM (inactive); in assay [12], 21.3 µM (inactive). Besides, the GI50 in assay [13] is 9.98 µM (inactive); in assay [14], 84.9 µM (inactive); in assay [15] it was 71 µM (inactive); in [16] it was > 100 µM (inactive); in assay [17], 56.5 µM (inactive); in assay [18], 30.3 µM (inactive).
In the case of `O=S(=O)(O)c1cc(/N=N/c2c(O)ccc3ccccc23)ccc1/C=C/c1ccc(/N=N/c2c(O)ccc3ccccc23)cc1S(=O)(=O)O`, the GI50 in [1], in assay [2], in [4], in [20], in assay [19] and in assay [6] was > 100 µM (inactive) each time. Further, the GI50 in assay [7], in [9], in assay [10], in assay [11], in [12] and in [13] was > 100 µM (inactive) in each case. In addition, the GI50 in assay [14], in [17] and in assay [18] was > 100 µM (inactive) each time.
In the case of `CCCCCCC(=O)C/C(=N/NC(N)=S)C(=O)NC1C2CC3CC(C2)CC1C3` (stereo not drawn), the GI50 in assay [1] was > 100 µM (inactive); in assay [2], > 100 µM (inactive); in assay [4], > 100 µM (inactive); in assay [20], 86.1 µM (inactive); in [19], > 100 µM (inactive); in assay [6], > 100 µM (inactive). Further, the GI50 in assay [7], in [8], in assay [9], in assay [10], in [11] and in assay [12] was > 100 µM (inactive) throughout. Besides, the GI50 in assay [13], in assay [15], in assay [16], in assay [17] and in assay [18] was > 100 µM (inactive) in each case.
Turning to `CCCCc1ccc(-n2sc3ncc([N+](=O)[O-])cc3c2=O)cc1`, the GI50 was 13.8 µM (inactive) in assay [1]; 8.69 µM (inactive) in [2]; 15.3 µM (inactive) in [3]; 12.5 µM (inactive) in assay [4]; 5.05 µM (inactive) in [6]; 17.3 µM (inactive) in assay [7]. Moreover, the GI50 was 12.7 µM (inactive) in [8]; 18.4 µM (inactive) in assay [9]; 13.6 µM (inactive) in assay [10]; 22.9 µM (inactive) in [11]; 14.4 µM (inactive) in assay [12]; 4.22 µM (inactive) in assay [13]. Besides, the GI50 in assay [15] was 20.3 µM (inactive); in assay [16], 10.4 µM (inactive); in [17], 10.5 µM (inactive); in assay [18], 9.12 µM (inactive).
Take `Oc1ccc(-c2nc(-c3ccc4ccccc4n3)c(-c3ccc(F)cc3)[nH]2)cc1`: the GI50 was 7.55 µM (inactive) in assay [1]; 11.5 µM (inactive) in assay [2]; 11.6 µM (inactive) in assay [4]; 15.2 µM (inactive) in assay [19]; 6.19 µM (inactive) in assay [6]; 15.3 µM (inactive) in assay [7]. Besides, the GI50 in [8] is 5.45 µM (inactive); in [9], 14.6 µM (inactive); in assay [10], 17.8 µM (inactive); in assay [11], 12.5 µM (inactive); in [12], 18 µM (inactive); in [13], 21.6 µM (inactive). Besides, the GI50 was 14.5 µM (inactive) in assay [14]; 1.87 µM (inactive) in [15]; 5.94 µM (inactive) in assay [16]; 10.4 µM (inactive) in assay [17]; 5.62 µM (inactive) in [18].
For `COc1ccc2c(C)c(Oc3c(Cl)c(Cl)c(O)c(C#N)c3C#N)oc2c1`, the GI50 in assay [1], in assay [2], in assay [3], in assay [4], in assay [5] and in [6] was > 100 µM (inactive) each time. For the same molecule, the GI50 in assay [7], in assay [8], in [9], in assay [10], in assay [11] and in assay [12] was > 100 µM (inactive) each time. In addition, the GI50 in [13], in assay [14], in [15], in [16], in assay [17] and in assay [18] was > 100 µM (inactive) each time.
For the molecule `C[C@@]1(CO)[C@H](O)CC[C@@]2(C)[C@H]1CC[C@H]1C[C@@H]3C[C@@]12CC[C@@]3(O)COC(=O)CN`, the GI50 in [1] is 9.25 µM (inactive); in assay [2] it was 2.32 µM (inactive); in assay [4], 4.7 µM (inactive); in assay [20], 20.4 µM (inactive); in assay [6], 58.3 µM (inactive); in assay [9] it was 19.1 µM (inactive). In addition, the GI50 in assay [10] was 16.4 µM (inactive); in [12], 14 µM (inactive); in assay [14], 5.55 µM (inactive); in assay [15], 2.23 µM (inactive); in assay [16], 0.293 µM (active); in assay [18], 6.56 µM (inactive).
Take `CN(C(=O)c1ccc(Cl)cc1)C(=S)N1CCN(c2ccccc2)CC1`: the GI50 in assay [1] is 77.6 µM (inactive); in [2] it was 92.5 µM (inactive); in assay [4] it was 20.1 µM (inactive); in assay [20], 89.5 µM (inactive); in [19], > 100 µM (inactive); in [6] it was > 100 µM (inactive). The GI50 in [7] is > 100 µM (inactive); in [8], 37.8 µM (inactive); in [9], 50.9 µM (inactive); in assay [11], > 100 µM (inactive); in [13], 46.7 µM (inactive); in assay [14] it was 42.1 µM (inactive). Also, the GI50 in assay [15] is 58.3 µM (inactive); in assay [16], 35.6 µM (inactive); in assay [17] it was > 100 µM (inactive); in assay [18], 64.3 µM (inactive).
On to `O=C(NN1C(=O)C(Cl)C1c1c(O)ccc2ccccc12)c1ccccc1O` (stereo not drawn), for which the GI50 in assay [1] is > 100 µM (inactive); in assay [2] it was > 100 µM (inactive); in assay [3], > 100 µM (inactive); in assay [4], > 100 µM (inactive); in assay [5] it was 8.45 µM (inactive); in [19] it was > 100 µM (inactive). For the same molecule, the GI50 in assay [6], in [7], in assay [8], in assay [11], in assay [13] and in assay [14] was > 100 µM (inactive) throughout. Besides, the GI50 in assay [15], in assay [16] and in assay [17] was > 100 µM (inactive) throughout.
